In patent US4021421A, “Benzodiazepine derivatives” (Richter Gedeon Vegyeszeti Gyar Rt., priority 1974, dated 1977):

Experiments:
[1] = system: hexobarbital oxidase; test: in vivo hexobarbital oxidase activity: hexobarbital sleeping time in rats (enzyme induction); parameters: species or system male Wistar rats; details: 40 mg./kg. oral; for Difference % (period of sleep vs. control): 24 hours, vs. control group, difference greater than 25% regarded as biologically significant; for Period of sleep, min. ± standard error: hexobarbital sodium 40 mg./kg. i.v. 24 hours later, control 28.50 ± 3.12 min.
Experimental: The enzyme-inducing effects of the new compounds were examined under in vivo conditions by determining the hexobarbital oxidase activity. The active agents of the formula (I) were administered to male Wistar rats weighing 50 to 60 g. in oral dosages of 40 mg./kg. The effect appears 24 hours after the administration of the enzyme-inducing substance. At that time the inactivation rate of hexobarbital was determined by administering intravenously 40 mg./kg. of hexobarbital sodium into the animals and measuring the time elapsed between the administration and the reappearance of the righting reflex. The period of sleep observed for the animals treated with the new compounds was compared to that observed in the control group (the animals belonging to the control group were treated with carrier substance only).
24 Hours after the administration of the enzyme-inducing compounds the in vivo inactivation of hexobarbital accelerates, which is evidenced by the shortening of the period of sleep. The results were expressed as percentage differences with respect to the controls. On the basis of the preliminary experiments a difference greater than 25% was regarded to be biologically significant.

[2] = system: hexobarbital; test: biological half life-time of hexobarbital (UV spectrophotometry of plasma); details: half-life of hexobarbital in treated rats, control 38 min.

Row | SMILES | Difference % (period of sleep vs. control) [1] [%] | Period of sleep, min. ± standard error [1] [min] | T1/2 (biological half life-time of hexobarbital) [2] [min.]
1 | CN1C(=O)CN(N=O)C(c2ccccc2)c2cc(Cl)ccc21 (stereo not drawn) [Example 1, 1-Methyl-4-nitroso-5-phenyl-7-chloro-1,3,4,5-tetrahydro-2H-1,4-benzodiazepine-2-one] | -42 | 16.53 ± 1.93 | –
2 | O=NN1CC(=O)Nc2ccc([N+](=O)[O-])cc2C1c1ccccc1 (stereo not drawn) [Example 2, 4-Nitroso-5-phenyl-7-nitro-1,3,4,5-tetrahydro-2H-1,4-benzodiazepine-2-one] | -51 | 13.97 ± 2.10 | –
3 | CN1C(=O)CN(N)C(c2ccccc2)c2cc(Cl)ccc21 (stereo not drawn) [Example 3, 1-Methyl-4-amino-5-phenyl-7-chloro-1,3,4,5-tetrahydro-2H-1,4-benzodiazepine-2-one] | -35 | 18.57 ± 2.06 | –
4 | CN1C(=O)CN(N=Cc2ccccc2)C(c2ccccc2)c2cc(Cl)ccc21 (stereo not drawn) [Example 5, 1-Methyl-4-benzalamino-5-phenyl-7-chloro-1,3,4,5-tetrahydro-2H-1,4-benzodiazepine-2-one] | -58 | 11.96 ± 1.38 | 26
5 | CN1C(=O)CN(N=Cc2ccc(O)cc2)C(c2ccccc2)c2cc(Cl)ccc21 (stereo not drawn) [Example 10, 1-Methyl-4-(p-hydroxy-benzalamino)-5-phenyl-7-chloro-1,3,4,5-tetrahydro-2H-1,4-benzodiazepine-2-one] | -41 | 16.82 ± 1.84 | –
6 | CN1C(=O)CN(NC(=O)CCl)C(c2ccccc2)c2cc(Cl)ccc21 (stereo not drawn) [Example 12, 1-Methyl-4-chloroacetamino-5-phenyl-7-chloro-1,3,4,5-tetrahydro-2H-1,4-benzodiazepine-2-one] | -33 | 19.10 ± 2.28 | –
7 | CC(=O)NN1CC(=O)N(C)c2ccc(Cl)cc2C1c1ccccc1 (stereo not drawn) [Example 13, 1-Methyl-4-acetylamino-5-phenyl-7-chloro-1,3,4,5-tetrahydro-2H-1,4-benzodiazepine-2-one] | -29 | 20.24 ± 2.17 | –
